This note sets out measurements from publication PMC9327782, “Benzoxazole derivatives as new VEGFR-2 inhibitors and apoptosis inducers: design, synthesis, in silico studies, and antiproliferative evaluation” (Journal of Enzyme Inhibition and Medicinal Chemistry, 2022).

Each structure is given as a SMILES string.

In one data set the target is T1, VEGFR-2 (Homo sapiens, UniProt P35968).
T1 construct: purchased
Put plainly: In vitro VEGFR-2 kinase assay (ELISA kit). It counts as biochemical. The procedure: The assay was applied by ELISA kits in accordance with the comprehensive description in[18]^,[33] as described in Supplementary data. […]
2. In vitro VEGFR-2 kinase assay
All the synthesized compounds were tested for its inhibitory activity against VEGFR-2. Human VEGFR-2 ELISA kit (Enzyme-Linked Immunosorbent Assay) was utilized in this test. At first, specific antibody for VEGFR-2 was seeded on a 96-well plate and 100 μL of the standard solution or the tested compound was added, all were incubated at room temperature for 2.5 h. Then washed, 100 μL of the prepared biotin antibody was added, then incubated at room temperature for additional 1 h. and washed. Then, 100 μL of streptavidin solution was added and incubated for 45 min. at room temperature. Washed again, 100 μL of TMB Substrate reagent was added and incubated for 30 min. at room temperature. 50 μL of the stop solution was added, then read at 450 […]
nm immediately. […]
For orientation: ELISA stands for enzyme-linked immunosorbent assay.

Another data set deals with WI-38 cell line. Put plainly: In vitro cytotoxicity against normal cell line (MTT). It counts as cell-based, human. Also on record: LogIC50 best-fit value, WI-38: unit not given here. The source says: […]. Such values were very high in comparison to the corresponding values on cancer cell lines, which reflect high safety profile of the tested candidates towards normal cell lines.
MTT assay protocol. This method was applied in accordance with the comprehensive description in Supplementary data. […]
5 Raw data of cytotoxity and VEGFR -2 assay […]
Experimental of biological testing
1. In vitro anti-proliferative activity
MTT assay protocol was applied to assess the anti-proliferative activity of the synthesized compounds. Two human cancer cell lines (MCF-7 and HepG-2) and one normal cell line (WI-38) were used in this test. At first, the cell lines were cultured in RPMI -1640 medium with 10% fetal bovine serum. Antibiotics (100 units/ml penicillin and100 µg/ml streptomycin ) were added at 37 °C in a 5% CO2 incubator. The cell lines were seeded in a 96-well plate at a density of 1.0 x 10^4 cells / well at 37 °C for 24 h under 5% CO2. After incubation, the cells were treated with different […]
concentration of the synthesized compounds and incubated for 24 h. After 24 h of drug treatment, 20 µl of MTT solution at 5mg/ml was added and incubated for 4 h. Dimethyl sulfoxide (DMSO) in volume of 100 µl was added into each well to dissolve the purple formazan formed. The colorimetric assay was measured and recorded at absorbance of 570 nm using a plate reader (EXL 800, USA). The relative cell viability in percentage was calculated as (A570 of treated samples/A570 of untreated sample) X 100. […]

The subject of data set [1] is HepG2 cells. Description: Flow cytometry cell cycle analysis (PI staining). The settings on record: HepG2, 10.50 µM, 24 h. It counts as cell-based, human. Here is the method: Compound 12I, achieved notable cytotoxic and VEGFR-2 inhibitory potencies was further studied mechanistically for cell cycle progression and induction of apoptosis in HepG2 cells. Cell cycle process was analysed after exposure of HepG2 cells to 12I with a concentration of 10.50 µM for 24 h.
This assay was applied using propidium iodide (PI) staining in accordance with the comprehensive description in Supplementary data[34]^,[35] […]
3. Flow cytometry analysis for cell cycle
To determine the role of the synthesized compounds in cell cycle distribution, cell cycle analysis was performed using propidium iodide (PI) staining and flow cytometry analysis for compound
12l. Flow Cytometry Kit for Cell Cycle Analysis (ab139418_Propidium Iodide Flow Cytometry Kit/BD) was used in this test. HepG2 cells were treated with compound 12l (10.50 µM) for 24 h.
Then, the cells were fixed in 70% ethanol at 4 °C for 12 h. After that, the cells were washed with cold PBS, incubated with 100 μl RNase A at 37 °C for 30 min, and stained with 400 μl PI in the dark at room temperature for further 30 min. The stained cells were measured using Epics XL-MCL™ Flow Cytometer (Beckman Coulter), and the data were analyzed using Flowing software (version 2.5.1, Turku Centre for Biotechnology, Turku, Finland) .
For orientation: A flow cytometer gives signals particle by particle.

The test system of data set [2] is HepG2 cells. Description: Flow cytometry apoptosis analysis (Annexin V/PI). It counts as cell-based, human. The procedure:
In details, 32.45 and 2.86% for early and late apoptotic phases, respectively compared to control, (6.56%,5.34%,1.22%, respectively) (Figure 5 and Table 5).
Apoptotic effect was applied in accordance with the comprehensive description in Supplementary data[36]^,[37]
4. Flow cytometry analysis for apoptosis
Flow cytometry cell apoptosis analysis was used to investigate the apoptotic effect of the synthesized compounds. HepG2 cells were treated with compound 12l (10.50 µM) for 24 h, collected by trypsin, centrifuged, washed two successive times with PBS, suspended in 500 μl binding buffer, and double stained with 5 μl Annexin V-FITC and 5 μl PI in the dark at room temperature for 15 min. The stained cells were measured using Epics XL-MCL™ Flow Cytometer and analyzed using Flowing software. […]

Where [3] appears, read: supplement raw data, dose-response curve fit.
Setting [4] is: HepG2, 24 h, mean ± SEM of two experiments.

T1 sequence (P35968 20-1356): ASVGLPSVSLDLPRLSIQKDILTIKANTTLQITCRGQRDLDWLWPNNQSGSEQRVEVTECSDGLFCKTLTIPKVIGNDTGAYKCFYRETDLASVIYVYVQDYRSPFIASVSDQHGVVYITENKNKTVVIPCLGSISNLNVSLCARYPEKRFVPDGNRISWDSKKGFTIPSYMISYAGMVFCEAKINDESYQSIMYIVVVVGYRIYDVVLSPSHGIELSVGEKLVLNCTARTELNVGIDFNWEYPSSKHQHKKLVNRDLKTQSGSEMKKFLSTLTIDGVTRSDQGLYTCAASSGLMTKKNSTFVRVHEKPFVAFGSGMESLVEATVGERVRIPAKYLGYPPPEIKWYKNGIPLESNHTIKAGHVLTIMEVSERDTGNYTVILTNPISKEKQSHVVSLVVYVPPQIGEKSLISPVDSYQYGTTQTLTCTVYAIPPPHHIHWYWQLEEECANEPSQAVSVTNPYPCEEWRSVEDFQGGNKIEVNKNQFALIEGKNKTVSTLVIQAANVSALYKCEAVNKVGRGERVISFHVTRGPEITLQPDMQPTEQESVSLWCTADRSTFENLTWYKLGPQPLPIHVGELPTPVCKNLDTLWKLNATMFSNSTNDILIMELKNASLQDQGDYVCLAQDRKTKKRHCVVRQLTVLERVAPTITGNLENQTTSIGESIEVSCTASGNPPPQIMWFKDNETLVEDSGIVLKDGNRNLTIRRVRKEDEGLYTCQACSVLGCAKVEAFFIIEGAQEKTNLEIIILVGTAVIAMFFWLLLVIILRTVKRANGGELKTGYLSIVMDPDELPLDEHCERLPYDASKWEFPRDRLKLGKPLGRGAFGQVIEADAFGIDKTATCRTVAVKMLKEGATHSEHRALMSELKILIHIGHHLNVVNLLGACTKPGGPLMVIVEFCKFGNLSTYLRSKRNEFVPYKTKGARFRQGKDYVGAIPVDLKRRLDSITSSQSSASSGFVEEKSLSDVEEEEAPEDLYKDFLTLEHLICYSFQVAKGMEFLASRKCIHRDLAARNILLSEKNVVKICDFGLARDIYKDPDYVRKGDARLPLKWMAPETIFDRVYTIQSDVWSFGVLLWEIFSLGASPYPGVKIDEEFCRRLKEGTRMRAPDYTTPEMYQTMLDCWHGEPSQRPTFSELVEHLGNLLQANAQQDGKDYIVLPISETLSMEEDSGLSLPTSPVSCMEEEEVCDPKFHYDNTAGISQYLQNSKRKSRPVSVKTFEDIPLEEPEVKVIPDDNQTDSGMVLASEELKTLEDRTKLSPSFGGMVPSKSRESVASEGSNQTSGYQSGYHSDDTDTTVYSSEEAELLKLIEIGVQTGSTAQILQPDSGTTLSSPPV

On VEGFR-2 (ELISA kit), `Cc1ccc2oc(SCC(=O)Nc3ccc(C(=O)Nc4cccc(Cl)c4)cc3)nc2c1` [Compound 12l, N-(3-Chlorophenyl)-4–(2-((5-methylbenzo[d]oxazol-2-yl)thio)acetamido)benzamide] yielded an IC50 of 0.0974 µM. At VEGFR-2 (supplement raw data, curve fit), the “HillSlope best-fit value, VEGFR-2” value is listed as -0.4614 and the “LogIC50 best-fit value, VEGFR-2” value is reported as 1.988 Log (nM). In the data set on WI-38 cell line (WI-38, normal human lung cell line, MTT), this molecule returned a concentration for half-maximal inhibition (IC50) of 37.8 µM. In addition, in the data set with WI-38 cell line (setting [3]), the “HillSlope best-fit value, WI-38” value is -0.4502 and the “LogIC50 best-fit value, WI-38” value was 1.577. Besides, in the data set on HepG2 cells [1], the “Cell cycle distribution %S” value amounted to 38.68%. In addition, in the data set with HepG2 cells [1] (listed as 12I), the “Cell cycle distribution % G2/M” value turned out to be 32.10% and the “Cell cycle distribution %Sub-G1 (Pre-G1)” value was 0.79%. Further, in the data set on HepG2 cells [1] (listed as 12 l), the “Cell cycle distribution % G2/M” value is listed as 32.10 ± 181 %, the “Cell cycle distribution %G1” value stood at 28.43 ± 0.37 %, the “Cell cycle distribution %S” value is on record as 38.68 ± 1.81 % and the “Cell cycle distribution %Sub-G1 (Pre-G1)” value stood at 0.79 ± 0.25%. Further, in the data set with HepG2 cells [2] (HepG2, 10.50 µM, 24 h), the “Early apoptotic phase” value is 32.45% and the “Late apoptotic phase” value is reported as 2.86%. In the data set on HepG2 cells [2] (setting [4]), the “Apoptosis Early (Right Bottom)” value worked out at 32.45 ± 3.13, the “Apoptosis Late (Right Top)” value is 2.86 ± 0.21 and the “Necrosis (Left Top)” value is 0.14 ± 0.06. Further, in the data set on HepG2 cells [2] (HepG2, 24 h, mean ± SEM of two experiments, in %), the “Viable (Left Bottom)” value was 64.55 ± 3.43.

Usually IC50 stands for the point on the concentration scale where inhibition reaches its midpoint.
